US9151757B2, “Detecting antigen responsive cells in a sample” (Stichting Sanquin Bloedvoorziening, priority 2008, dated 2015)

Tested on: CD8+ T cells in PBMCs
Experiment: Combinatorial coding MHC multimer flow cytometry of enriched, in vitro expanded PBMCs
Format: cell-based, human
Conditions: enriched PBMCs from 27 HLA-A3 positive melanoma patients, after MACS enrichment and short term in vitro expansion

Row | Sequence | CD8+ T cell responses against peptide detected by dual color-encoded pMHC multimer staining
1 | GTYEGLLRR (listed as Homo sapiens) [Tyrp2 301-309, unknown HLA-A3 associated T cell antigen] | identification of the unknown HLA-A3 associated T cells antigens
2 | HAYIQSLLK (listed as Homo sapiens) | CD8^+ T cell responses were observed
3 | QLRALDGGNK (listed as Homo sapiens) | CD8^+ T cell responses were observed
4 | RMYNMVPFF (listed as Homo sapiens) | CD8^+ T cell responses were observed
5 | SLYRDPLPR (listed as Homo sapiens) | CD8^+ T cell responses were observed
